Source: US11851406B2, “Positive allosteric modulators of the muscarinic acetylcholine receptor M1” (Vanderbilt University, priority 2018, dated 2023)

Key:
[1] = target: T1, human mAChR M1 (Homo sapiens, UniProt P11229); experiment: mAChR M1 cell-based functional assay (calcium mobilization), agonist activity upon compound addition alone; conditions: CHO-K1 cells expressing hM1; for EC50: calcium mobilization upon compound addition, no acetylcholine; for Emax: compound alone, relative to the maximum for acetylcholine
T1 sequence (P11229 1-460): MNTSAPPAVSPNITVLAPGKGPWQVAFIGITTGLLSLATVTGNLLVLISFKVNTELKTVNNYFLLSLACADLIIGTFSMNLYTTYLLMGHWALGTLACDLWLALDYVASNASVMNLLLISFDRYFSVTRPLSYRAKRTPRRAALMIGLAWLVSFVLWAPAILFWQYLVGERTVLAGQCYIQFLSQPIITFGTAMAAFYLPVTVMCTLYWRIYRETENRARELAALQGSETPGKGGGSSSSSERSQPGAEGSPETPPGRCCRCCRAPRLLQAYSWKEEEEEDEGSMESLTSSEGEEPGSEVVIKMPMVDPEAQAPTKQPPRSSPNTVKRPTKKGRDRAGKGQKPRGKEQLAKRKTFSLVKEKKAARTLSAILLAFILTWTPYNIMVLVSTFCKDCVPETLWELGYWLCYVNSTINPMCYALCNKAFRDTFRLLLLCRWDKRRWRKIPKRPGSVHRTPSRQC
Text: (§1) Chinese hamster ovary (CHO-K1) cells stably expressing rat (r)M1 were purchased from the American Type Culture Collection and cultured according to their indicated protocol. CHO cells stably expressing human (h)M2, hM3, and hM5 were described previously (Levey, et al., 1991); hM1 and hM4 cDNAs were purchased from Missouri S&T cDNA Resource; rM4 cDNA was provided by T. I. Bonner (National Institutes of Health, Bethesda, Md.). rM2 and rM3 were cloned from a rat brain cDNA library and sequence verified. hM1, rM2, rM3, hM4, and rM4 cDNAs were used to stably transfect CHO-K1 cells purchased from the American Type Culture Collection using Lipofectamine2000. To make stable rM2, hM2, rM3, hM4, and rM4 cell lines for use in calcium mobilization assays, these cells also were stably transfected with a chimeric G-protein (Gqi5) (provided by B. R. Conklin, University of California, San Francisco) using Lipofectamine 2000. rM1, hM1, rM3, hM3, rM5, and hM5 cells were grown in Ham's F-12 medium containing 10% heat-inactivated fetal bovine serum (FBS), 20 mM HEPES, and 50 μg/mL G418 sulfate. rM2-Gqi5, hM2-Gqi5, and hM4-Gqi5 cells were grown in the same medium also containing 500 μg/mL Hygromycin B. Stable rM4-Gqi5 cells were grown in DMEM containing 10% heat-inactivated FBS, 20 mM HEPES, 400 μg/mL G418 sulfate, and 500 μg/mL Hygromycin B.
(§2) For high throughput measurement of agonist-evoked increases in intracellular calcium, CHO-K1 cells stably expressing muscarinic receptors were plated in growth medium lacking G418 and hygromycin at 15,000 cells/20 μL/well in Greiner 384-well black-walled, tissue culture (TC)-treated, clear-bottom plates (VWR). Cells were incubated overnight at 37° C. and 5% CO2. The next day, cells were washed using an ELX 405 (BioTek) with four washes (80 μL) of assay buffer then aspirated to 20 μL. Next, 20 μL of 16 μM Fluo-4/acetoxymethyl ester (Invitrogen, Carlsbad, Calif.) prepared as a 2.3 mM stock in DMSO and mixed in a 1:1 ratio with 10% (w/v) Pluronic F-127 and diluted in assay buffer was added to the wells and the cell plates were incubated for 50 min at 37° C. and 5% CO2. Dye was removed by washing with the ELX 405 (four 80 μL washes of assay buffer) then aspirated to 20 μL. Compound master plates were formatted in an 11 point CRC format (1:3 dilutions) in 100% DMSO with a starting concentration of 10 mM using the BRAVO liquid handler (Agilent). Test compound CRCs were then transferred to daughter plates (240 nL) using the Echo acoustic plate reformatter (Labcyte, Sunnyvale, Calif.) and then diluted into assay buffer (40 μL) to a 2× stock using a Thermo Fisher Combi (Thermo Fisher Scientific, Waltham, Mass.).
(§3) Calcium flux was measured using the Functional Drug Screening System (FDSS) 6000 (Hamamatsu Corporation, Tokyo, Japan) as an increase in the fluorescent static ratio. Compounds were applied to cells (20 μL, 2×) using the automated system of the FDSS 6000 at 4 s into the 300 s protocol and the data were collected at 1 Hz. At 144 s into the 300 s protocol, 10 μL of an EC20 concentration of the muscarinic receptor agonist acetylcholine was added (5×), followed by the addition of 12 μL an EC80 concentration of acetylcholine at the 230 s time point (5×). Agonist activity was analyzed as a concentration-dependent increase in calcium mobilization upon compound addition. Emax values for agonist activity are expressed relative to the maximum for acetylcholine. Positive allosteric modulator activity was analyzed as a concentration-dependent increase in the EC20 acetylcholine response. Antagonist activity was analyzed as a concentration-dependent decrease in the EC80 acetylcholine response. Concentration-response curves were generated using a four-parameter logistical equation in XLfit curve fitting software (IDBS, Bridgewater, N.J.) for Excel (Microsoft, Redmond, Wash.) or Prism (GraphPad Software, Inc., San Diego, Calif.).

[2] = target: T1, human mAChR M1; experiment: mAChR M1 cell-based functional assay (calcium mobilization), PAM activity: increase in the EC20 acetylcholine response; conditions: CHO-K1 cells expressing hM1; calcium flux (Fluo-4); potentiation of EC20 acetylcholine response
Text: as §1, §2, §3

SMILES	EC50 [1]	Emax [1]	EC50 [2]	Emax [2]
Cn1cc(-c2ccc(Cc3cc(C(=O)N[C@H]4CCOC[C@@H]4O)nc(-n4cccn4)c3)cn2)cn1 [Compound 18, N-((3R,4S)-3-hydroxytetrahydro-2H-pyran-4-yl)-4-((6-(1-methyl-1H-pyrazol-4-yl)pyridin-3-yl)methyl)-6-(1H-pyrazol-1-yl)picolinamide]	≥ 10 µM	13%	1.02 µM	85%
Cc1nc(-c2ccc(Cc3cc(C(=O)N[C@H]4CCOC[C@@H]4O)nc(-n4cccn4)c3)cc2)co1 [Compound 19, N-((3R,4S)-3-hydroxytetrahydro-2H-pyran-4-yl)-4-(4-(2-methyloxazol-4-yl)benzyl)-6-(1H-pyrazol-1-yl)picolinamide]	> 10 µM	< 5%	1.97 µM	88%
Cn1cc(-c2ccc(Cc3cc(C(=O)N[C@H]4CCCC[C@@H]4O)nc(-n4cccn4)c3)cn2)cn1 [Compound 20, N-((1S,2S)-2-hydroxycyclohexyl)-4-((6-(1-methyl-1H-pyrazol-4-yl)pyridin-3-yl)methyl)-6-(1H-pyrazol-1-yl)picolinamide]	> 10 µM	< 5%	2.25 µM	61%
Cn1cc(-c2ccc(Cc3cc(C(=O)NC4CC5(COC5)C4)nc(-n4cccn4)c3)cn2)cn1 [Compound 21, 4-((6-(1-methyl-1H-pyrazol-4-yl)pyridin-3-yl)methyl)-6-(1H-pyrazol-1-yl)-N-(2-oxaspiro[3.3]heptan-6-yl)picolinamide]	> 10 µM	< 5%		40%
Cc1nc(-c2ccc(Cc3cc(C(=O)N[C@H]4CCCC[C@@H]4O)nc(-n4cccn4)c3)cc2)co1 [Compound 22, N-((1S,2S)-2-hydroxycyclohexyl)-4-(4-(2-methyloxazol-4-yl)benzyl)-6-(1H-pyrazol-1-yl)picolinamide]	≥ 10 µM	11%	0.634 µM	86%
Cc1nc(-c2ccc(Cc3cc(C(=O)NC4CC5(COC5)C4)nc(-n4cccn4)c3)cc2)co1 [Compound 23, 4-(4-(2-methyloxazol-4-yl)benzyl)-6-(1H-pyrazol-1-yl)-N-(2-oxaspiro[3.3]heptan-6-yl)picolinamide]	> 10 µM	< 5%	6.25 µM	69%
Cc1nc(-c2ccc(Cc3cc(C(=O)N[C@H]4CCC[C@@H]4O)nc(-n4cccn4)c3)cc2)co1 [Compound 24, N-((1S,2S)-2-hydroxycyclopentyl)-4-(4-(2-methyloxazol-4-yl)benzyl)-6-(1H-pyrazol-1-yl)picolinamide]	> 10 µM	< 5%	4.91 µM	78%
Cc1nc(-c2ccc(Cc3cc(C(=O)N[C@H]4CC[C@@H]4O)nc(-n4cccn4)c3)cc2)co1 [Compound 25, N-((1S,2S)-2-hydroxycyclobutyl)-4-(4-(2-methyloxazol-4-yl)benzyl)-6-(1H-pyrazol-1-yl)picolinamide]	> 10 µM	< 5%		40%
Cn1cc(-c2ccc(Cc3cc(C(=O)NC4CCOCC4)nc(-n4cccn4)c3)cn2)cn1 [Compound 26, 4-((6-(1-methyl-1H-pyrazol-4-yl)pyridin-3-yl)methyl)-6-(1H-pyrazol-1-yl)-N-(tetrahydro-2H-pyran-4-yl)picolinamide]	> 10 µM	5%		47%
Cc1nc(-c2ccc(Cc3cc(C(=O)NC4CCOCC4)nc(-n4cccn4)c3)cc2)co1 [Compound 27, 4-(4-(2-methyloxazol-4-yl)benzyl)-6-(1H-pyrazol-1-yl)-N-(tetrahydro-2H-pyran-4-yl)picolinamide]	> 10 µM	6%		62%

Continued, values first:

EC50 [1]	Emax [1]	EC50 [2]	Emax [2]	SMILES
> 10 µM	< 5%	4.72 µM	88%	Cc1c(Cc2ccc(-c3ccn(C)n3)cc2)cc(C(=O)NC2CC3(COC3)C2)nc1-c1ccn(C)n1 [Compound 11, 5-methyl-6-(1-methyl-1H-pyrazol-3-yl)-4-(4-(1-methyl-1H-pyrazol-3-yl)benzyl)-N-(2-oxaspiro[3.3]heptan-6-yl)picolinamide]
> 10 µM	6%	1.97 µM	86%	Cc1c(Cc2ccc(-c3ccn(C)n3)cc2)cc(C(=O)N[C@H]2CCC[C@@H]2O)nc1-c1ccn(C)n1 [Compound 12, N-((1S,2S)-2-hydroxycyclopentyl)-5-methyl-6-(1-methyl-1H-pyrazol-3-yl)-4-(4-(1-methyl-1H-pyrazol-3-yl)benzyl)picolinamide]
> 10 µM	< 5%	7.99 µM	80%	Cc1c(Cc2ccc(-c3ccn(C)n3)cc2)cc(C(=O)N[C@H]2CC[C@@H]2O)nc1-c1ccn(C)n1 [Compound 13, N-((1S,2S)-2-hydroxycyclobutyl)-5-methyl-6-(1-methyl-1H-pyrazol-3-yl)-4-(4-(1-methyl-1H-pyrazol-3-yl)benzyl)picolinamide]
> 10 µM	< 5%		74%	Cc1c(Cc2ccc(-c3ccn(C)n3)cc2)cc(C(=O)NCC2CCOCC2)nc1-c1ccn(C)n1 [Compound 14, 5-methyl-6-(1-methyl-1H-pyrazol-3-yl)-4-(4-(1-methyl-1H-pyrazol-3-yl)benzyl)-N-((tetrahydro-2H-pyran-4-yl)methyl)picolinamide]
> 10 µM	< 5%	4.61 µM	82%	Cc1c(Cc2ccc(-c3ccn(C)n3)cc2)cc(C(=O)NC[C@@H]2CCCO2)nc1-c1ccn(C)n1 [Compound 15, (S)-5-methyl-6-(1-methyl-1H-pyrazol-3-yl)-4-(4-(1-methyl-1H-pyrazol-3-yl)benzyl)-N-((tetrahydrofuran-2-yl)methyl)picolinamide]
> 10 µM	< 5%		62%	Cc1c(Cc2ccc(-c3ccn(C)n3)cc2)cc(C(=O)NC[C@H]2CCCO2)nc1-c1ccn(C)n1 [Compound 16, (R)-5-methyl-6-(1-methyl-1H-pyrazol-3-yl)-4-(4-(1-methyl-1H-pyrazol-3-yl)benzyl)-N-((tetrahydrofuran-2-yl)methyl)picolinamide]
> 10 µM	< 5%	2.26 µM	86%	Cc1c(Cc2ccc(-c3ccn(C)n3)cc2)cc(C(=O)NC2CCOCC2(C)C)nc1-c1ccn(C)n1 (centres unmarked) [Compound 17, N-(3,3-dimethyltetrahydro-2H-pyran-4-yl)-5-methyl-6-(1-methyl-1H-pyrazol-3-yl)-4-(4-(1-methyl-1H-pyrazol-3-yl)benzyl)picolinamide]
